Data on 18 compounds can be found in patent US10174029B2, “Pyrimidine-2,4-diamine derivatives for treatment of cancer” (THOMAS HELLEDAYS STIFTELSE FOR MEDICINSK FORSKNING, priority 2012, dated 2019).

The term IC50 denotes the concentration that gives 50% inhibition.

The first test concerns the target MTH1 (Homo sapiens, UniProt P36639). Kind of test: MTH1 enzymatic assay and IC50 value determination (malachite green). To be noted: MTH1 4.8 nM, dGTP 100 μM, 15 minutes at 22° C.; group: between 2 μM and 10 μM. Format: biochemical. The method, boiled down: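 Malachite green detection of Pi after coupling dGTP hydrolysis to excess E. coli pyrophosphatase; 4.8 nM MTH1, 100 μM dGTP in Tris-acetate buffer with Mg2+ and DTT, 1% DMSO, 15 min at 22 °C. 12-point 1:3 compound series; absorbance at 630 nm; IC50 by four-parameter nonlinear regression.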
`Nc1nc(NCCN2CCOCC2)cc(-c2ccccc2)n1` [Example 12, 4-N-[2-(morpholin-4-yl)ethyl]-6-phenylpyrimidine-2,4-diamine] yielded an IC50 of 2000 to 10000 nM. The compound `Nc1nc(NC2CCOCC2)cc(-c2cccc(Cl)c2)n1` [Example 21, 6-(3-chlorophenyl)-4-N-(oxan-4-yl)pyrimidine-2,4-diamine] had an IC50 of 2000 to 10000 nM.

Staying with this test, now noted: MTH1 4.8 nM, dGTP 100 μM, 15 minutes at 22° C.; group: less than 200 nM.
The compound `Cc1cccc(-c2cc(NCCCCNS(=O)(=O)c3ccc(S(C)(=O)=O)cc3)nc(N)n2)c1C` [Example 424, N-(4-{[2-amino-6-(2,3-dimethylphenyl)pyrimidin-4-yl]amino}butyl)-4-methanesulfonylbenzene-1-sulfonamide] registered a half-inhibitory concentration (IC50) below 200 nM.

`Nc1nc(NC2CCOC2)cc(-c2cccc(Cl)c2Cl)n1` (stereo not drawn) [Example 67, 6-(2,3-dichlorophenyl)-4-N-(oxolan-3-yl)pyrimidine-2,4-diamine] showed an IC50 below 200 nM. Same read-out and setting: the same measure for `CNc1cc(-c2cccc(NC(=O)C(O)c3ccc(Cl)cc3)c2)nc(N)n1` (stereo not drawn) [Example 323, N-{3-[2-Amino-6-(methylamino)pyrimidin-4-yl]phenyl}-2-(4-chlorophenyl)-2-hydroxyacetamide]: below 200 nM; for `CNc1cc(-c2ccc(C=O)cc2)nc(N)n1` [Example 108, 4-[2-amino-6-(methylamino)pyrimidin-4-yl]benzaldehyde]: below 200 nM. Still for that read-out and setting: the same measure for `CNc1cc(-c2cc3cn[nH]c3cc2C)nc(N)n1` [Example 146, 4-N-methyl-6-(6-methyl-1H-indazol-5-yl)pyrimidine-2,4-diamine]: below 200 nM; for `CNc1cc(-c2ccc(C(=O)OC)cc2)nc(N)n1` [Example 103, methyl 4-[2-amino-6-(methylamino)pyrimidin-4-yl]benzoate]: below 200 nM. As to `Cc1cc(CCCNc2cc(-c3cccc(C)c3C)nc(N)n2)n[nH]1` [Example 276, 6-(2,3-dimethylphenyl)-4-N-[3-(5-methyl-1H-pyrazol-3-yl)propyl]pyrimidine-2,4-diamine], the IC50 is below 200 nM. `CNc1cc(-c2ccc(OC)c(C)c2C)nc(N)n1` [Example 259, 6-(4-methoxy-2,3-dimethylphenyl)-4-N-methylpyrimidine-2,4-diamine] showed a 50% inhibitory concentration (IC50) below 200 nM. Still for that read-out and setting: for `Cc1cccc(-c2cc(NCC3CCCN3C(=O)OC(C)(C)C)nc(N)n2)c1C` (stereo not drawn) [Example 282, tert-butyl 2-({[2-amino-6-(2,3-dimethylphenyl)pyrimidin-4-yl]amino}methyl)-pyrrolidine-1-carboxylate] the value was below 200 nM. Regarding `CNc1cc(-c2ccc(NS(C)(=O)=O)cc2)nc(N)n1` [Example 46, N-{4-[2-amino-6-(methylamino)pyrimidin-4-yl]phenyl}methanesulfonamide], the IC50 was below 200 nM.

`COc1ccc(-c2cc(NC3CC3)nc(N)n2)cc1` [Example 18, 4-N-cyclopropyl-6-(4-methoxyphenyl)pyrimidine-2,4-diamine] yielded a 50% inhibitory concentration (IC50) below 200 nM. `CNc1cc(-c2cccc(Cl)c2F)nc(N)n1` [Example 87, 6-(3-chloro-2-fluorophenyl)-4-N-methylpyrimidine-2,4-diamine]: the IC50 is below 200 nM. Same read-out and setting: the same measure for `Cc1cccc(-c2cc(NC3CC3)nc(N)n2)c1Cl` [Example 227, 6-(2-chloro-3-methylphenyl)-4-N-cyclopropylpyrimidine-2,4-diamine]: below 200 nM; for `Cc1ccc(CCNc2cc(-c3cccc(C)c3C)nc(N)n2)cc1` [Example 127, 6-(2,3-dimethylphenyl)-4-N-[2-(4-methylphenyl)ethyl]pyrimidine-2,4-diamine]: below 200 nM; for `Cc1cccc(-c2cc(NCc3cnn(-c4ccc(F)cc4)c3)nc(N)n2)c1C` [Example 348, 6-(2,3-Dimethylphenyl)-4-N-{[1-(4-fluorophenyl)-1H-pyrazol-4-yl]methyl}pyrimidine-2,4-diamine]: below 200 nM. Compound `COc1ccc(-c2cc(NC3CCCC3)nc(N)n2)cc1` [Example 56, 4-N-cyclopentyl-6-(4-methoxyphenyl)pyrimidine-2,4-diamine] registered a half-maximal inhibitory concentration (IC50) below 200 nM.
